Counter-ions that a name gives are not always drawn.
Tests used:
[1] = system: A549 cell line; assay: Cell growth inhibition of cancer cell lines (SRB assay), A549; format: cell-based
Method: (§1) The tests on cell growth inhibitory activity were performed with respect to A549 (US, ATCC), SK-OV-3 (Korea Research Institute of Chemical Technology; KRICT), HT-29 (US, ATCC), MCF-7 cell (US, ATCC), using Sulforhodamin-B <SRB> Assay (1989, US National Cancer Institute (NCI)) which was developed to measure the in vitro anti-cancer activity of the drug. […] The samples of the compounds of the Examples according to the present invention were used for the tests, and before the tests, the samples were dissolved in dimethylsulfoxide and diluted with the culture medium (RPMI 1640) to be used. The final concentration of the sample was varied in the range of 0.3˜100 μM. After the culture medium was removed from the 96 well plates, the diluted sample solution was added by 100 μl, and cultured in 37° C., 5% CO2 culture medium for 72 hours. The time zero (Tz) plates were collected at the time point of adding the sample. Upon completing the culture, the medium was removed from each well along with Tz plate, then cold 10% trichloroacetic acid (TCA) was added by 100 μl per well. The wells were left at 4° C. for 1 hour, so that the cells were fixed into the bottom of the plates. After the cells were fixed, the plates were rinsed with water five to six times to remove the remaining trichloroacetic acid solution, and moisture was completely dried at room temperature. The cells were dyed for 30 minutes by adding the dye solution in which 0.4% sulforhodamine-B was dissolved in 1% acetic acid solution, by 100 μl per dried wells. The above was rinsed again with 1% acetic acid solution five to six times to ensure that sulforhodamine-B which had not attached to the cells was removed. The plates were again dried at room temperature. 100 μl of 10 mM tris-buffer was then added to dissolve the dye, and the optical density (OD) at 520 nm was measured with the microplate reader. GI50 of the sample regarding cancer cell was calculated as explained below. Time zero (Tz), control value (C) and test value (T) were obtained, in which Tz corresponds to OD value of time at which the sample is applied and culture is started, C corresponds to OD value of the well which is cultured without treatment with the sample, and T corresponds to OD value of the well which is treated with the sample and then cultured. The degree of cell growth inhibition of the sample was measured using: If […] [Mathematical Formula 1]
(§2) Further, the ability of Examples 2, 42, 49, 52, 72, 74, 101 to increase growth inhibition effect of temozolomide and SN-38 at 2 μM was determined.

[2] = biological target: PARP-1 enzyme (Homo sapiens (Human), UniProt P09874); assay: Poly(ADP-ribose)polymerase [PARP-1] enzyme inhibitory activity (Trevigen PARP Assay kit); format: biochemical; settings: PARP-1 enzyme, histone ribosylation, 450 nm; read-out: PARP-1 Inhibitory activity IC50
Sequence of PARP-1 enzyme (Homo sapiens (Human), UniProt P09874) (P09874 whole entry): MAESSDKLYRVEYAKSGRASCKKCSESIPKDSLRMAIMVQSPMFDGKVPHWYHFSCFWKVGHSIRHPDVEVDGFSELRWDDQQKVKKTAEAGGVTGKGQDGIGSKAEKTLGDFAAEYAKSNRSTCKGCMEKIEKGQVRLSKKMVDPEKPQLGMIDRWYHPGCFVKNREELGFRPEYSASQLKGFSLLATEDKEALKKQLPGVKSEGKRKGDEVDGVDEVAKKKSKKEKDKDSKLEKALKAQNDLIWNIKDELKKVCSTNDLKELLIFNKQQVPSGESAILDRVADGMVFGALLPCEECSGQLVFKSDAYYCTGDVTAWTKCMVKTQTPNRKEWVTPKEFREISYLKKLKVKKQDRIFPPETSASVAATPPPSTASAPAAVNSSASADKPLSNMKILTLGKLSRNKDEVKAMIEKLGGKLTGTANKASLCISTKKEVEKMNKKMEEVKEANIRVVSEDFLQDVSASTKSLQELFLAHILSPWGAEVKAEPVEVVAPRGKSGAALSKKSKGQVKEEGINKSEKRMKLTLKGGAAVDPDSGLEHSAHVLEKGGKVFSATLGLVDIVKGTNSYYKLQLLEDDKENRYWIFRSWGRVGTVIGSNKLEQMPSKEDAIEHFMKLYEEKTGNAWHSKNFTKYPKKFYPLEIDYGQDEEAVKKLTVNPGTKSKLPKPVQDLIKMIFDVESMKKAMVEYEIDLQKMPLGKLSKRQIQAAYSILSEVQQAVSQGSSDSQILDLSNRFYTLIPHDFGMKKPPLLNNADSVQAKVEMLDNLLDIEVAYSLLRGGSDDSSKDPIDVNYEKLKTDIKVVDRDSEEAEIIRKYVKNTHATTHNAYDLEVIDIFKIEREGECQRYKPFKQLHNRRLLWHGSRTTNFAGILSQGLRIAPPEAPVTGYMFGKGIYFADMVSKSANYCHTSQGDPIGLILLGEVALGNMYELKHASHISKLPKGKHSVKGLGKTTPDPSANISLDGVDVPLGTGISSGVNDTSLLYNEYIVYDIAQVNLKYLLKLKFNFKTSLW
Summary of the method: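 On histone-coated plates, PARP-1 (0.12 unit/well) reacted with compound for 30 min at 25 °C in a 2× cocktail of 1.95 mM NAD+, 50 μM biotinylated NAD+ and activated DNA (Tris pH 8.0, 25 mM MgCl2). Biotin-ribosylated histone was detected with streptavidin-HRP and TACS-Sapphire substrate, stopped with HCl and read at 450 nm.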

[3] = system: HT-29 Cell line; assay: Cell growth inhibition of cancer cell lines (SRB assay), HT-29; format: cell-based
Method: as §1, §2

[4] = system: MCF-7 Cell line; assay: Cell growth inhibition of cancer cell lines (SRB assay), MCF-7; format: cell-based
Method: as §1, §2

[5] = biological target: PARP-1 enzyme (Cricetulus griseus (Chinese hamster) (Cricetulus barabensis griseus), UniProt Q9R152); assay: Intracellular PARP inhibitory activity (NAD(P)H released by MMS-treated CHO-K1 cells); format: cell-based
Sequence of PARP-1 enzyme (Cricetulus griseus (Chinese hamster) (Cricetulus barabensis griseus), UniProt Q9R152) (Q9R152 whole entry): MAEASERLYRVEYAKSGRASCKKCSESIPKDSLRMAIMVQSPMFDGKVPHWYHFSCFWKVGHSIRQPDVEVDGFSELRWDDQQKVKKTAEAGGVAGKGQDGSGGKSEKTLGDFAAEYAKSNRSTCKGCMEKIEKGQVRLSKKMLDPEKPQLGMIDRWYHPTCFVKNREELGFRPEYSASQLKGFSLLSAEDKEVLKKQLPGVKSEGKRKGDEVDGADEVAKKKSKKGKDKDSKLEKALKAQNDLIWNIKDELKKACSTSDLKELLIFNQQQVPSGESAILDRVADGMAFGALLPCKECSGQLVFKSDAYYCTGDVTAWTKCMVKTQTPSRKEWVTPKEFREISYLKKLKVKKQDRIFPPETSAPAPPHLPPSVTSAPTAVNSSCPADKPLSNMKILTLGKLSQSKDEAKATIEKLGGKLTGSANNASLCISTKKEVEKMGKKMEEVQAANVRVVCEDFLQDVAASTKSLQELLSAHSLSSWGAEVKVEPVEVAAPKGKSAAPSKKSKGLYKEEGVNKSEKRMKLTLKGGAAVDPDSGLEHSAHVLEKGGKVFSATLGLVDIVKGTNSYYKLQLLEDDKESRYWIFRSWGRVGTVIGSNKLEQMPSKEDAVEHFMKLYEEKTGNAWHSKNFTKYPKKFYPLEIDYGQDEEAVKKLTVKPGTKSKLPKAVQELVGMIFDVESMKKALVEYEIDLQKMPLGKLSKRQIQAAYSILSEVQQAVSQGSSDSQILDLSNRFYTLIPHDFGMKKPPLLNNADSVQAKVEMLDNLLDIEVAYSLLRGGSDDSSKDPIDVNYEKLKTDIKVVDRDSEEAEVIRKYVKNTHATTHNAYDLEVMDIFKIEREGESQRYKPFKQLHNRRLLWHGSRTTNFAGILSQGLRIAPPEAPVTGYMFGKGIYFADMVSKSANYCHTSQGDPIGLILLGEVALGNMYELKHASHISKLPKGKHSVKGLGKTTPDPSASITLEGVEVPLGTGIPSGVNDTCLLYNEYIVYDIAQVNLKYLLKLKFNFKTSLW
Method: In order to verify the ability of the compounds of the present invention to inhibit the PARP-1 enzyme activity, the amount of NAD(P)H accumulated on cell culture medium was measured.
The Chinese hamster ovary cells (CHO-K1) were cultured in RPMI1640 culture medium containing 10% fetal bovine serum (FBS). The cultured CHO-K1 cells were seeded into 96 well plate by 2.9×10^3 cells/well, and cultured for 16 hours under culture condition of 37° C., 5% CO2. After the culture, the cells were treated with the compounds of the Examples at varying concentrations, and cultured at 37° C. for 2 hours. […] The amount of […] released to the culture medium 3, 4, 5 hours after the treatment with MMS was quantified at 450 nm using Wallac EnVision™ (PerkinElmer Oy, Turku, Finland). The transference numbers of the compounds at varying concentrations according to the present invention are the average values obtained from four wells, and the results were calculated using regression analysis.
The Chinese hamster ovary cells (CHO-K1) were treated with the compounds at varying concentration according to the present invention, and the amount of NAD(P)H released into the culture medium 4 hours after the MMS treatment was quantified.

[6] = system: SK-OV-3 Cell line; assay: Cell growth inhibition of cancer cell lines (SRB assay), SK-OV-3; format: cell-based
Method: as §1, §2

GI50 ([1]; Homo sapiens, 72 hours): 55 µM
IC50 [2]: 0.56 µM
GI50 ([3]; Homo sapiens, 72 hours): 20 µM
GI50 ([4]; Homo sapiens, MCF7, 72 hours): 11 µM
IC50 [5]: 1.94 µM
GI50 ([6]; Homo sapiens, 72 hours): 19 µM
Structure (SMILES): CCOc1cc(CN2CCOCC2)cc2[nH]c(=O)c3c(c12)NCCC3 [Example 101, 10-Ethoxy-8-(morpholinomethyl)-1,2,3,4-tetrahydrobenzo[h][1,6]naphthyridine-5(6H)-one dihydrochloride]
SN-38 PF50 ([1]; 2 μM compound, GI50 SN-38 alone / GI50 with compound): 2.6
Temozolomide PF50 ([1]; 2 μM compound, GI50 temozolomide alone / GI50 with compound): 3.2
SN-38 PF50 ([3]; 2 μM compound): 4.0
Temozolomide PF50 ([3]; 2 μM compound): >1.9
SN-38 PF50 ([4]; 2 μM compound): 3.0
Temozolomide PF50 ([4]; 2 μM compound): 5.9
SN-38 PF50 ([6]; 2 μM compound): 2.8
Temozolomide PF50 ([6]; 2 μM compound): >3.9
